One experiment has as its system Na^+,K^+ -ATPase. The following applies: reported in literature; cited from earlier work.
The conditions of experiment [1]: reported in literature; cited from earlier work.
The subject of experiment [2] is spontaneous hypertensive rats (MHS). The experiment in a line: effect of 5 week-treatment in spontaneous hypertensive rats (MHS) on the development of hypertension (SBP and HR, tail cuff). It counts as in vivo, rat. The following applies: 10 mg/Kg/os daily in Methocel 0.5% w/v, 5 weeks. As for the experimental part: Systolic blood pressure (SBP) and heart rate (HR) were measured, by the tail cuff method, in young prehypertensive male rats (MHS or SHR) strains before the development of hypertension (4 weeks of age) for recording the basal values of SBP. Groups of 7 rats were formed and subdivided in control and treated groups. The compound, suspended in Methocel 0.5% (w/v), was orally given daily for at least 5 weeks to the treated groups. The control group received only Methocel. SBP and HR were measured weekly 6 and 24 hrs after treatment. After 5 weeks of treatment, when hypertension was fully developed in the control group (9 weeks of age), washout was started for at least one week, to verify whether the treatment maintained blood pressure low or reestablished the basal values. […] (Takeda K. et al., Japan J. Pharmacol., 1979, 29,171; Takeda K. et al. Japan J. Pharmacol., 1982, 32, 283; Richer C. et al. Eur. J. Pharmacol, 1978, 47,393).

The target of experiment [3] is Na^+, K^+ -ATPase receptor (Homo sapiens, UniProt P05023). The experiment in a line: displacement of the specific 3H-ouabain binding from the Na+,K+-ATPase receptor.
Experiment [4] has as its target purified Na^+,K^+ -ATPase (Homo sapiens, UniProt P05023). The experiment in a line: inhibition of the activity of the purified Na+,K+-ATPase (% hydrolysis of 32P-ATP). Format: biochemical.
Setting [5] is: displacement of specific 3H-ouabain binding, read-out: Binding ^3 H-Ouab. Displacement log IC50 (converted).
The mark [6] stands for this setting: purified Na+,K+-ATPase, read-out: Inhibitory Activity log IC50 (converted).
The mark [7] stands for this setting: read-out: Inhibitory Activity log IC50 (converted).

Read-outs that look alike come from different tables or passages of the source.

We go through 20 compounds from patent publication US5583127A, “17-iminomethylalkenyl-5 β, 14 β-androstane and 17-iminoalkyl-5 β, 14 β-androstane derivatives active on the cardiovascular system, and pharmaceutical compositions containing same” (Sigma-Tau Industrie Farmaceutiche Riunite S.p.A., priority 1993, dated 1996).

For `C[C@]12CC[C@H](O)C[C@H]1CC[C@@H]1[C@@H]2CC[C@]2(C)C(=NNC(=N)N)CC[C@]12O` [17-guanidinoimino-5β-androstane-3β,14β-diol], the “inhibition of Na+,K+-ATPase” value in the experiment on Na^+,K^+ -ATPase is reported as “weak inhibitors of Na^+,K^+ -ATPase”. The positive inotropic activity result in experiment [1] was “weak positive inotropic agents”.

For `C[C@]12CC[C@H](O)C[C@H]1CC[C@@H]1[C@@H]2CC[C@]2(C)[C@@H](C=NNC(=N)N)CC[C@]12O` [17β-guanidinoiminomethyl-5β-androstane-3β,14β-diol], the “inhibition of Na+,K+-ATPase” value in the experiment with Na^+,K^+ -ATPase is “weak inhibitors of Na^+,K^+ -ATPase”. Besides, the positive inotropic activity result in experiment [1] was “weak positive inotropic agents”.

On to `C[C@]12CC[C@H](O)C[C@H]1CC[C@@H]1[C@@H]2CC[C@]2(C)[C@@H](/C=C/C=N/NC(=N)N)CC[C@]12O` [Comp. I-aa, (E,E)-17β-(3-Guanidinoimino-1-propenyl)-5β-androstane-3β,14β-diol], for which the “SBP (systolic blood pressure)” value in experiment [2] (controls 172 +/- 3.5) is 149 +/- 3.9 mm Hg. Further, in experiment [2] (controls 380 +/- 9.0), the “HR (heart rate)” value is on record as 373 +/- 10.0 beats/min. For the same compound, in experiment [3] (setting [5]), the IC50 (in general, the point on the concentration scale where inhibition reaches its midpoint) was 25.1 nM.

On to `CN1CCN=C1N/N=C/C=C/[C@H]1CC[C@]2(O)[C@@H]3CC[C@@H]4C[C@@H](O)CC[C@]4(C)[C@H]3CC[C@]12C` [Comp. I-ae, (E,E)-17β-[3-(1-Methyl-2-imidazolin-2-yl)hydrazono-1-propenyl]-5β-androstane-3β,14β-diol], for which the values for the IC50 in experiment [4] and in experiment [3] were 2.51 µM and 158 nM, respectively.

For the compound `C[C@]12CC[C@H](O)C[C@H]1CC[C@@H]1[C@@H]2CC[C@]2(C)[C@@H](/C=C/C=N/NC3=NCC(=O)N3)CC[C@]12O` [Comp. I-af, (E,E)-17β-[3-(5-Oxo-2-imidazolin-2-yl)hydrazono-1-propenyl]-5β-androstane-3β,14β-diol], the figures for the IC50 in experiment [4] (setting [6]) and in experiment [3] (setting [5]) were 39.8 µM and 2000 nM, respectively.

Turning to `C[C@]12CC[C@H](O)C[C@H]1CC[C@@H]1[C@@H]2CC[C@]2(C)[C@@H](/C=C/C=N/NC3=NCCCN3)CC[C@]12O` [Comp. I-ag, (E,E)-17β-[3-(1,4,5,6-Tetrahydro-2-pyrimidinyl)hydrazono-1-propenyl]-5β-androstane-3β,14β-diol], the IC50 in experiment [4] (setting [6]) is 1.58 µM; in experiment [3] (setting [5]), 39.8 nM.

For `C[C@]12CC[C@H](O)C[C@H]1CC[C@@H]1[C@@H]2CC[C@]2(C)[C@@H](/C=C/C=N\NC3=NCCCN3)CC[C@]12O` [Comp. I-ah, 17β-[3-(Z)-(1,4,5,6-Tetrahydro-2-pyrimidinyl)hydrazono-1-(E)-propenyl]-5β-androstane-3β,14β-diol], the IC50 in experiment [4] (setting [7]) was 7.94 µM; in experiment [3], 794 nM.

In the case of `CN(C)CCNC(=N)N/N=C/C=C/[C@H]1CC[C@]2(O)[C@@H]3CC[C@@H]4C[C@@H](O)CC[C@]4(C)[C@H]3CC[C@]12C` [Comp. I-ai, (E,E)-17β-{3-[3-(2-Dimethylaminoethyl)guanidinoimino]-1-propenyl}-5β-androstane-3β,14β-diol], the IC50 in experiment [4] (setting [7]) was 3.16 µM; in experiment [3] (setting [5]), 251 nM.

Take `C[C@]12CC[C@H](O)C[C@H]1CC[C@@H]1[C@@H]2CC[C@]2(C)[C@@H](/C=C/C=N/NC(=N)Nc3ccccc3)CC[C@]12O` [Comp. I-aj, (E,E)-17β-[3-(3-Phenyl)guanidinoimino-1-propenyl]-5β-androstane-3β,14β-diol]: the results for the IC50 in experiment [4] (setting [7]) and in experiment [3] (setting [5]) were 10 µM and 1000 nM, respectively.

`C[C@]12CC[C@H](O)C[C@H]1CC[C@@H]1[C@@H]2CC[C@]2(C)[C@@H](/C=C/C=N/NC(N)=O)CC[C@]12O` [Comp. I-ak, (E,E)-17β-(3-Semicarbazono)-1-propenyl-5β-androstane-3β,14β-diol]: the IC50 is 25.1 µM in experiment [4] (setting [7]) and 2000 nM in experiment [3] (setting [5]).

On to `C[C@]12CC[C@H](O)C[C@H]1CC[C@@H]1[C@@H]2CC[C@]2(C)[C@@H](/C=C/C=N/NC(N)=S)CC[C@]12O` [Comp. I-al, (E,E)-17β-(3-Thiosemicarbazono-1-propenyl)-5β-androstane-3β,14β-diol], for which the IC50 in experiment [4] (setting [6]) is 39.8 µM; in experiment [3] (setting [5]), 3980 nM.

Regarding `CO/N=C/C=C/[C@H]1CC[C@]2(O)[C@@H]3CC[C@@H]4C[C@@H](O)CC[C@]4(C)[C@H]3CC[C@]12C` [Comp. I-an, (E,E)-17β-(3-Methoxyimino-1-propenyl)-5β-androstane-3β,14β-diol], the IC50 was 20 µM in experiment [4] (setting [6]) and 2000 nM in experiment [3] (setting [5]).

In the case of `C[C@]12CC[C@H](O)C[C@H]1CC[C@@H]1[C@@H]2CC[C@]2(C)[C@@H](/C=C/C=N/OCCN)CC[C@]12O` [Comp. I-ao, (E,E)-17β-[3-(2-Aminoethoxyimino)-1-propenyl]-5β-androstane-3β,14β-diol], the IC50 in experiment [4] (setting [6]) was 0.02 µM; in experiment [3] (setting [5]), 15.8 nM.

Consider `C[C@]12CC[C@H](O)C[C@H]1CC[C@@H]1[C@@H]2CC[C@]2(C)[C@@H](/C=C/C=N/OCCCN)CC[C@]12O` [Comp. I-ap, (E,E)-17β-[3-(3-Aminopropoxyimino)-1-propenyl]-5β-androstane-3β,14β-diol], for which the IC50 was 0.1 µM in experiment [4] (setting [6]) and 50.1 nM in experiment [3].

As to `C[C@]12CC[C@H](O)C[C@H]1CC[C@@H]1[C@@H]2CC[C@]2(C)[C@@H](/C=C/C=C/C=N/NC3=NCCN3)CC[C@]12O` [Comp. I-av, (E,E,E)-17β-[5-(2-Imidazolin-2-yl)hydrazono-1,3-pentadienyl]-5β-androstane-3β,14β-diol], the IC50 is 10 µM in experiment [4] (setting [6]) and 1000 nM in experiment [3] (setting [5]).

On to `C[C@]12CC[C@H](O)C[C@H]1CC[C@@H]1[C@@H]2CC[C@]2(C)[C@@](O)(/C=C/C=N/NC3=NCCN3)CC[C@]12O` [Comp. I-bp, (E,E)-17β-[3-(2-Imidazolin-2-yl)hydrazono-1-propenyl]-5β-androstane-3β,14β,17α-triol], for which the IC50 in experiment [4] (setting [7]) was 7.94 µM; in experiment [3] (setting [5]) it was 631 nM.

As to `C[C@]12CC[C@H](OCCN3CCCC3)C[C@H]1CC[C@@H]1[C@@H]2CC[C@]2(C)[C@@H](/C=C/C=NNC(=N)N)CC[C@]12O` [Comp. I-bx, 3β-[2-(1-Pyrrolidinyl)ethoxy]-17β-(3-(E,Z)-guanidinoimino-1-(E)-propenyl)-5β-androstane-3β,14β-diol], the IC50 was 0.126 µM in experiment [4] (setting [6]) and 20 nM in experiment [3] (setting [5]).

With `CN(C)CCO/N=C/C=C/[C@H]1CC[C@]2(O)[C@@H]3CC[C@@H]4C[C@H](O)CC[C@]4(C)[C@H]3CC[C@]12C` [Comp. I-ck, (E,E)-17β-[3-(2-Dimethylaminoethoxyimino)-1-propenyl]-5β-androstane-3α,14β-diol], the values for the IC50 in experiment [4] (setting [6]) and in experiment [3] were 0.0631 µM and 50.1 nM, respectively.

In the case of `C[C@]12CC[C@@H](O)C[C@H]1CC[C@@H]1[C@@H]2CC[C@]2(C)[C@@H](/C=C/C=N/NC(=N)N)CC[C@]12O` [Comp. I-ej, (E,E)-17β-(3-Guanidinoimino-1-propenyl)-5β-androstane-3α,14β-diol], the results for the IC50 in experiment [4] (setting [6]) and in experiment [3] were 0.316 µM and 50.1 nM, respectively.

With `C[C@]12CC[C@H](OCCCN)C[C@H]1CC[C@@H]1[C@@H]2CC[C@]2(C)[C@@H](/C=C/C=N/NC(=N)N)CC[C@]12O` [qomp. I-cd, (E,E)-3β-(3-Aminopropoxy)-17β-(3-guanidinoimino-1-propenyl)-5β-androstane-3β,14β-diol], the IC50 in experiment [4] (setting [6]) was 0.0794 µM; in experiment [3] (setting [5]), 15.8 nM.
